From patent US8133898B2, “Renin inhibitors” (Takeda Pharmaceutical Company Limited, priority 2008, dated 2012)

Key:
Recombinant human renin = target: T1, Recombinant human renin (Homo sapiens, UniProt P00797); assay: in vitro enzymatic activity of renin inhibitors (fluorescence); format: biochemical; conditions: fluorogenic peptide substrate
T1 construct: with trypsin, and isolate the active form (residues 67-406); made in house; host or cells: FreeStyle 293-F cells (transient expression of pcDNA3.1(+)/hREN)
T1 sequence (P00797 67-406): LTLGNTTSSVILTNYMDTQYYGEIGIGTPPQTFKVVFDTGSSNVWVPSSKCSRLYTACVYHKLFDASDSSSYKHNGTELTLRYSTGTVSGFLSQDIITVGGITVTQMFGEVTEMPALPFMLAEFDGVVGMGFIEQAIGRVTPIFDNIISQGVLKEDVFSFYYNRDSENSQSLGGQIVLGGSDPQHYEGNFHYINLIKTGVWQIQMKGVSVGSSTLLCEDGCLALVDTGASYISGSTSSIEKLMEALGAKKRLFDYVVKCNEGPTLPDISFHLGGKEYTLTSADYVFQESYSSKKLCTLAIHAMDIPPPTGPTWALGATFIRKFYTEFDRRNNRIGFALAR
Source text: Test compounds in varying concentrations may be reacted with recombinant human renin in the presence of substrate, e.g., QXL520-γ-Abu-Ile-His-Pro-Phe-His-Leu-Val-Ile-His-Thr-Lys (HiLyteFluo488)-Arg-OH (Anaspec, San Jose, Calif.). The reaction can be followed kinetically using fluorescence (excitation λ=485 nm; emission λ=538 nm). Inhibition constants (IC50) may be calculated by non-linear curve fitting of the compound concentrations and fluorescence intensities to the standard IC50 equation.
Solutions of test compounds in varying concentrations (≦2 mM final concentration) are prepared in dimethyl sulfoxide (DMSO) and then diluted into assay buffer comprising 50 mM Hepes, 1 mM EDTA, 1 mM DTT, 0.1 mg/ml BSA, 0.01% Brij35, pH 7.4. Alternatively, the assay can be performed with a high BSA concentration, wherein the buffer contains an additional 2% BSA.
Recombinant human renin (3 nM final concentration) is added to the dilutions and pre-incubated with the compounds for 10 minutes at 37° C. As described in Examples A-C above, human renin can be obtained by expressing preprorenin (residue 1-406) in mammalian cells, treating the prorenin (residues 24-406) contained in the culture supernatant with trypsin, and isolate the active form (residues 67-406). After pre-incubation, the reaction is initiated with 1 μM of substrate QXL520-γ-Abu-Ile-His-Pro-Phe-His-Leu-Val-Ile-His-Thr-Lys (HiLyteFluo488)-Arg-OH (Anaspec, San Jose, Calif.). The final DMSO in the assay is 5%. The total volume of the reaction mixture is 20 μL, which can be placed on Greiner 384-well small volume plates.
Renin activity may be determined via fluorescence (excitation λ=485 nm; emission λ=538 nm), e.g., on a Molecular Devices SPECTROmax GEMINI XPS. The fluorescence intensity is determined upon the addition of substrate and determined again after incubation at 37° C. for one hour. The fluorescence intensity of a blank (no inhibition) using vehicle alone is also determined. Renin activity is linearly proportional to the change in fluorescence observed (final—initial).
The percent inhibition of renin at a given compound concentration is defined as: 100%×[1−(Fcompound/Fblank)] where Fcompound is the observed fluorescence at a given concentration of test compound and Fblank is the observed fluorescence in the presence of vehicle alone.
The pIC50 value (negative log of the molar concentration of the compound that produces 50% inhibition) of a test compound is calculated by non-linear least squares curve fitting of the equation: Percent Inhibition=100%/(1+(10−pIC50/10 log [I])) to percent inhibition versus compound concentration. The 50% inhibitory concentration (IC50) of a test compound is calculated by raising 10 to the negative pIC50 (10-pIC50).

Human DPP-IV = Human DPP-IV (Homo sapiens, UniProt P27487); assay: in vitro enzymatic activity of inhibitors against DPP-IV; format: biochemical; conditions: AP-AFC substrate
Method: Solutions of test compounds in varying concentrations ([…]) were prepared in dimethyl sulfoxide (DMSO) and then diluted into assay buffer comprising: 20 mM Tris, pH 7.4; 20 mM KCl; and 0.1 mg/mL BSA. Human DPP-IV (0.1 nM final concentration) was added to the dilutions and pre-incubated for 10 minutes at ambient temperature before the reaction was initiated with A-P-7-amido-4-trifluoromethylcoumarin (AP-AFC; 10 μM final concentration). The total volume of the reaction mixture was 10-100 μL depending on assay formats used (384 or 96 well plates). The reaction was followed kinetically (excitation λ=400 nm; emission λ=505 nm) for 5-10 minutes or an end-point was measured after 10 minutes. Inhibition constants (IC50) were calculated from the enzyme progress curves using standard mathematical models.

Chain of Human DPP-IV (P27487 whole entry): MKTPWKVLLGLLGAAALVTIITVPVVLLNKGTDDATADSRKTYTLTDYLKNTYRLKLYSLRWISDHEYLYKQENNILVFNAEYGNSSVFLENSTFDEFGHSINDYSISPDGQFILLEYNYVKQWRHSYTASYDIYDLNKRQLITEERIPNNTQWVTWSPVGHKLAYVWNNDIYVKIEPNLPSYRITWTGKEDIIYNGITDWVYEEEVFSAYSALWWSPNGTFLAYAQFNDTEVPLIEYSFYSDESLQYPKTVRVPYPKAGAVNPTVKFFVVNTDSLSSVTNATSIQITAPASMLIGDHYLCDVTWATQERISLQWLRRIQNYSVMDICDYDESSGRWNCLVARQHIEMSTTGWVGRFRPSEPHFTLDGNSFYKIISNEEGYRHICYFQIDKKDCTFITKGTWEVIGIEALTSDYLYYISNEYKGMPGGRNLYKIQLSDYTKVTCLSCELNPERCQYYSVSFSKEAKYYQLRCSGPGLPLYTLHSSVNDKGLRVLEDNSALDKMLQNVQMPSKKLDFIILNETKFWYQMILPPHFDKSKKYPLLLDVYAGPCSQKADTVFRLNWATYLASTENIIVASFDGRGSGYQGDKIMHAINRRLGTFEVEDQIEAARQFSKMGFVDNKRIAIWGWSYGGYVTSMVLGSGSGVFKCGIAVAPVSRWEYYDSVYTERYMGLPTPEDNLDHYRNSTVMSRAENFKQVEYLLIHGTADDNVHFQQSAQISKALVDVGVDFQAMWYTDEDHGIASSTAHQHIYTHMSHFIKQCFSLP

Row | IC50 (Recombinant human renin) [µM] | IC50 (Human DPP-IV) [µM] | SMILES
1 | 1 to 10 | < 1 | COc1ccc(F)cc1-c1c(CN)c(NCc2cccc(OCc3ccccc3)c2)nc2c1c(=O)n(C)c(=O)n2C [Compound 82, 6-(aminomethyl)-7-(3-(benzyloxy)benzylamino)-5-(5-fluoro-2-methoxyphenyl)-1,3-dimethylpyrido[2,3-d]pyrimidine-2,4(1H,3H)-dione]
2 | 10 to 100 | < 1 | CC(=O)Nc1ccc(Sc2nc3c(c(-c4cc(F)ccc4Br)c2CN)c(=O)n(C)c(=O)n3C)cc1 [Compound 68, N-(4-(6-(aminomethyl)-5-(2-bromo-5-fluorophenyl)-1,3-dimethyl-2,4-dioxo-1,2,3,4-tetrahydropyrido[2,3-d]pyrimidin-7-ylthio)phenyl)acetamide]
3 | 1 to 10 | 10 to 100 | Cn1c(=O)c2c(-c3cccc4c3OC(C)(C)C4)c(CN)c(NCc3ccc4ccccc4c3)nc2n(C)c1=O [Compound 59, 6-(Aminomethyl)-5-(2,2-dimethyl-2,3-dihydrobenzofuran-7-yl)-1,3-dimethyl-7-(naphthalen-2-ylmethylamino)pyrido[2,3-d]pyrimidine-2,4(1H,3H)-dione]
4 | 1 to 10 | 10 to 100 | Cn1c(=O)c2c(-c3cccc(O)c3)c(CN)c(NCc3ccc4ccccc4c3)nc2n(C)c1=O [Compound 80, 6-(aminomethyl)-5-(3-hydroxyphenyl)-1,3-dimethyl-7-(naphthalen-2-ylmethylamino)pyrido[2,3-d]pyrimidine-2,4(1H,3H)-dione]
5 | 1 to 10 | < 1 | COc1ccc(F)cc1-c1c(CN)c(NCc2ccccc2C(F)(F)F)nc2c1c(=O)n(C)c(=O)n2C [Compound 87, 6-(Aminomethyl)-5-(5-fluoro-2-methoxyphenyl)-1,3-dimethyl-7-(2-(trifluoromethyl)benzylamino)pyrido[2,3-d]pyrimidine-2,4(1H,3H)-dione]
6 | 1 to 10 | < 1 | Cn1c(=O)c2c(-c3cc(F)ccc3Br)c(CN)c(NC(Cc3ccccc3)c3ccccc3)nc2n(C)c1=O (stereo not shown) [Compound 91, 6-(Aminomethyl)-5-(2-bromo-5-fluorophenyl)-7-(1,2-diphenylethylamino)-1,3-dimethylpyrido[2,3-d]pyrimidine-2,4(1H,3H)-dione]
7 | 10 to 100 | > 100 | Cn1c(=O)c2c(-c3ccc(CN)cc3)c(CN)c(N)nc2n(C)c1=O [Compound 66, 7-Amino-6-(aminomethyl)-5-(4-(aminomethyl)phenyl)-1,3-dimethylpyrido[2,3-d]pyrimidine-2,4(1H,3H)-dione]
8 | 10 to 100 | > 100 | CCCOc1ccc(OCCC)c(-c2c(CN)c(NCc3ccc4ccccc4c3)nc3c2c(=O)n(C)c(=O)n3C)c1 [Compound 65, 6-(Aminomethyl)-5-(2,5-dipropoxyphenyl)-1,3-dimethyl-7-(naphthalen-2-ylmethylamino)pyrido[2,3-d]pyrimidine-2,4(1H,3H)-dione]
9 | 1 to 10 | 10 to 100 | Cn1c(=O)c2c(-c3cccc(OCc4cncs4)c3)c(CN)c(NCc3ccc4ccccc4c3)nc2n(C)c1=O [Compound 79, 6-(aminomethyl)-1,3-dimethyl-7-(naphthalen-2-ylmethylamino)-5-(3-(thiazol-5-ylmethoxy)phenyl)pyrido[2,3-d]pyrimidine-2,4(1H,3H)-dione]
10 | 1 to 10 | 10 to 100 | Cn1c(=O)c2c(-c3cccc(OCc4cnc(Cl)s4)c3)c(CN)c(NCc3ccc4ccccc4c3)nc2n(C)c1=O [Compound 89, 6-(Aminomethyl)-5-(3-((2-chlorothiazol-5-yl)methoxy)phenyl)-1,3-dimethyl-7-(naphthalen-2-ylmethylamino)pyrido[2,3-d]pyrimidine-2,4(1H,3H)-dione]
11 | 1 to 10 | < 1 | COc1ccc(F)cc1-c1c(CN)c(NCCCc2ccccc2)nc2c1c(=O)n(C)c(=O)n2C [Compound 75, 6-(aminomethyl)-5-(5-fluoro-2-methoxyphenyl)-1,3-dimethyl-7-(3-phenylpropylamino)pyrido[2,3-d]pyrimidine-2,4(1H,3H)-dione]
12 | 1 to 10 | 10 to 100 | COc1ccc(Oc2cccc(-c3c(CN)c(NCc4ccc5ccccc5c4)nc4c3c(=O)n(C)c(=O)n4C)c2)cc1 [Compound 60, 6-(Aminomethyl)-5-(3-(4-methoxyphenoxy)phenyl)-1,3-dimethyl-7-(naphthalen-2-ylmethylamino)pyrido[2,3-d]pyrimidine-2,4(1H,3H)-dione]
13 | 10 to 100 | < 1 | COc1ccc(F)cc1-c1c(CN)c(NCCc2ccccc2)nc2c1c(=O)n(C)c(=O)n2C [Compound 93, 6-(Aminomethyl)-5-(5-fluoro-2-methoxyphenyl)-1,3-dimethyl-7-(phenethylamino)pyrido[2,3-d]pyrimidine-2,4(1H,3H)-dione]
14 | > 100 | > 100 | Cn1c(=O)c2c(-c3nc4ccccc4s3)c(CN)c(NCc3ccc4ccccc4c3)nc2n(C)c1=O [Compound 62, 6-(Aminomethyl)-5-(benzo[d]thiazol-2-yl)-1,3-dimethyl-7-(naphthalen-2 ylmethylamino)pyrido[2,3-d]pyrimidine-2,4(1H,3H)-dione]
15 | 1 to 10 | – | CCC(CC)Nc1nc2c(c(-c3cc(F)ccc3OC)c1CN)c(=O)n(C)c(=O)n2C [Compound 73, 6-(aminomethyl)-5-(5-fluoro-2-methoxyphenyl)-1,3-dimethyl-7-(pentan-3-ylamino)pyrido[2,3-d]pyrimidine-2,4(1H,3H)-dione]
16 | 1 to 10 | – | COc1cccc(CNc2nc3c(c(-c4cc(F)ccc4OC)c2CN)c(=O)n(C)c(=O)n3C)c1 [Compound 71, 6-(aminomethyl)-5-(5-fluoro-2-methoxyphenyl)-7-(3-methoxybenzylamino)-1,3-dimethylpyrido[2,3-d]pyrimidine-2,4(1H,3H)-dione]
17 | 1 to 10 | – | CN(C)C(=O)c1cccc(-c2c(CN)c(NCc3ccc4ccccc4c3)nc3c2c(=O)n(C)c(=O)n3C)c1 [Compound 58, 3-(6-(Aminomethyl)-1,3-dimethyl-7-(naphthalen-2-ylmethylamino)-2,4-dioxo-1,2,3,4-tetrahydropyrido[2,3-d]pyrimidin-5-yl)-N,N-dimethylbenzamide]

Row | SMILES | IC50 (Recombinant human renin) [µM] | IC50 (Human DPP-IV) [µM]
18 | CC(C)COc1cccc(-c2c(CN)c(N)nc3c2c(=O)n(C)c(=O)n3C)c1 [Compound 76, 7-amino-6-(aminomethyl)-5-(3-isobutoxyphenyl)-1,3-dimethylpyrido[2,3-d]pyrimidine-2,4(1H,3H)-dione] | > 100 | 10 to 100
19 | CC(C)COc1ccc(Cl)cc1-c1c(CN)c(NCc2ccc3ccccc3c2)nc2c1c(=O)n(C)c(=O)n2C [Compound 88, 6-(Aminomethyl)-5-(5-chloro-2-isobutoxyphenyl)-1,3-dimethyl-7-(naphthalen-2-ylmethylamino)pyrido[2,3-d]pyrimidine-2,4(1H,3H)-dione] | 1 to 10 | 1 to 10
20 | CC(C)COc1ccccc1-c1c(CN)c(NCc2ccc3ccccc3c2)nc2c1c(=O)n(C)c(=O)n2C [Compound 77, 6-(aminomethyl)-5-(2-isobutoxyphenyl)-1,3-dimethyl-7-(naphthalen-2-ylmethylamino)pyrido[2,3-d]pyrimidine-2,4(1H,3H)-dione] | 1 to 10 | > 100
